Test results taken from ChEMBL document CHEMBL4359904, “Structural tuning of acridones for developing anticancer agents targeting dihydrofolate reductase” (Bioorg Med Chem Lett, 2019).
Calls of active or inactive are those of the source. No cut-off for these calls is given here.

Tests used:
CCRF-CEM = experiment: Growth inhibition of human CCRF-CEM cells incubated for 48 hrs by sulforhodamine B assay; format: functional
A549 = experiment: Growth inhibition of human A549/ATCC cells incubated for 48 hrs by sulforhodamine B assay; format: functional; settings: A549, 48 h
EKVX = experiment: Growth inhibition of human EKVX cells incubated for 48 hrs by sulforhodamine B assay; format: functional
HOP-62 = experiment: Growth inhibition of human HOP62 cells incubated for 48 hrs by sulforhodamine B assay; format: functional; settings: HOP-62, 48 h
NCI-H322M = experiment: Growth inhibition of human NCI-H322M cells incubated for 48 hrs by sulforhodamine B assay; format: functional
NCI-H460 = experiment: Growth inhibition of human NCI-H460 cells incubated for 48 hrs by sulforhodamine B assay; format: functional; settings: NCI-H460, 48 h
COLO 205 = experiment: Growth inhibition of human COLO205 cells incubated for 48 hrs by sulforhodamine B assay; format: functional; settings: COLO 205, 48 h
HT-29 = experiment: Growth inhibition of human HT-29 cells incubated for 48 hrs by sulforhodamine B assay; format: functional; settings: HT-29, 48 h
SF-268 = experiment: Growth inhibition of human SF268 cells incubated for 48 hrs by sulforhodamine B assay; format: functional; settings: SF-268, 48 h
SF-295 = experiment: Growth inhibition of human SF295 cells incubated for 48 hrs by sulforhodamine B assay; format: functional; settings: SF-295, 48 h
SF-539 = experiment: Growth inhibition of human SF539 cells incubated for 48 hrs by sulforhodamine B assay; format: functional; settings: SF-539, 48 h
SNB-19 = experiment: Growth inhibition of human SNB19 cells incubated for 48 hrs by sulforhodamine B assay; format: functional; settings: SNB-19, 48 h
SNB-75 = experiment: Growth inhibition of human SNB75 cells incubated for 48 hrs by sulforhodamine B assay; format: functional; settings: SNB-75, 48 h
UACC-257 = experiment: Growth inhibition of human UACC257 cells incubated for 48 hrs by sulforhodamine B assay; format: functional; settings: UACC-257, 48 h
OVCAR-5 = experiment: Growth inhibition of human OVCAR5 cells incubated for 48 hrs by sulforhodamine B assay; format: functional; settings: OVCAR-5, 48 h
SK-OV-3 = experiment: Growth inhibition of human SKOV3 cells incubated for 48 hrs by sulforhodamine B assay; format: functional; settings: SK-OV-3, 48 h
786-0 = experiment: Growth inhibition of human 786-0 cells incubated for 48 hrs by sulforhodamine B assay; format: functional; settings: 786-0, 48 h
A498 = experiment: Growth inhibition of human A498 cells incubated for 48 hrs by sulforhodamine B assay; format: functional; settings: A498, 48 h
CAKI-1 = experiment: Growth inhibition of human Caki1 cells incubated for 48 hrs by sulforhodamine B assay; format: functional; settings: CAKI-1, 48 h
RXF 393 = experiment: Growth inhibition of human RXF393 cells incubated for 48 hrs by sulforhodamine B assay; format: functional; settings: RXF 393, 48 h
UO-31 [1] = experiment: Growth inhibition of human UO31 cells incubated for 48 hrs by sulforhodamine B assay; format: functional; settings: UO-31, 48 h
DU-145 = experiment: Growth inhibition of human DU145 cells incubated for 48 hrs by sulforhodamine B assay; format: functional; settings: DU-145, 48 h
RPMI-8226 = experiment: Growth inhibition of human RPMI8226 cells at 10^-5 M incubated for 48 hrs by sulforhodamine B assay relative to control; format: functional; settings: RPMI-8226, 48 h, read-out: GI
SR = experiment: Growth inhibition of human SR cells at 10^-5 M incubated for 48 hrs by sulforhodamine B assay relative to control; format: functional; settings: read-out: GI
UO-31 [2] = experiment: Growth inhibition of human UO31 cells at 10^-5 M incubated for 48 hrs by sulforhodamine B assay relative to control; format: functional; settings: UO-31, 48 h, read-out: GI
MCF7 = experiment: Growth inhibition of human MCF7 cells at 10^-5 M incubated for 48 hrs by sulforhodamine B assay relative to control; format: functional; settings: MCF7, 48 h, read-out: GI
MDA-MB-468 = experiment: Growth inhibition of human MDA-MB-468 cells at 10^-5 M incubated for 48 hrs by sulforhodamine B assay relative to control; format: functional; settings: MDA-MB-468, 48 h, read-out: GI
[3] = system: Panel NCI-60 (60 carcinoma cell lines); experiment: Therapeutic index, ratio of LC50 for human NCI60 cells to GI50 for human NCI60 cells measured after 48 hrs by sulforhodamine B assay; format: functional
C6 = experiment: Cell cycle arrest in rat C6 cells assessed as increase in cell population at sub G0 phase measured after 24 hrs by propidium iodide staining based flow cytometry analysis; format: functional
[4] = biological target: T1, Dihydrofolate reductase (Homo sapiens) (UniProt P00374); experiment: Binding affinity to human dihydrofolate reductase at 5 uM assessed as decrease in absorption band by UV-visible spectroscopic analysis
T1 sequence (whole entry): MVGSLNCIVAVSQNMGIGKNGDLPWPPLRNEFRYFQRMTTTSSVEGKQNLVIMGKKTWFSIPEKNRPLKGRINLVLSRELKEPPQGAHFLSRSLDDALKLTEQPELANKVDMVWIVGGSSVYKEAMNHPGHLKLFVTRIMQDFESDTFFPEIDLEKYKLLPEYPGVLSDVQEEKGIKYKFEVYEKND

[5] = read-out: LC50 (the source's name)
[6] = read-out: pLC50 (the source's name) (converted)

O=c1c2ccccc2n(CC2CO2)c2ccccc12 (racemic) showed a GI50 (CCRF-CEM; read-out: GI50) of 0.07 µM, a CC50 (CCRF-CEM; [5]) of over 100 µM and a GI50 (CCRF-CEM; read-out: pGI50 (converted)) of 0.0769 µM. It also gave a CC50 (CCRF-CEM; [6]) of over 100 µM, a GI50 (A549) of 0.479 µM and a CC50 (A549; [6]) of over 100 µM. The TGI (A549; read-out: pTGI (converted)) was 3.8 µM, the GI50 (EKVX) was 1.38 µM and the CC50 (EKVX; [6]) was over 100 µM. The TGI (EKVX; read-out: pTGI (converted)) was 5.01 µM, the GI50 (HOP-62) was 0.38 µM and the CC50 (HOP-62; [6]) was over 100 µM. The TGI (HOP-62; read-out: pTGI (converted)) was 2.75 µM, the GI50 (NCI-H322M) was 2 µM and the CC50 (NCI-H322M; [6]) was over 100 µM. The TGI (NCI-H322M; read-out: pTGI (converted)) was 7.76 µM, the GI50 (NCI-H460) was 0.38 µM and the CC50 (NCI-H460; [6]) was over 100 µM. For the same compound, the TGI (NCI-H460; read-out: pTGI (converted)) was 1.66 µM, the GI50 (COLO 205) was 0.245 µM and the CC50 (COLO 205; [6]) was 64.6 µM. It also gave a TGI (COLO 205; read-out: pTGI (converted)) of 1.41 µM, a GI50 (HT-29) of 0.316 µM and a CC50 (HT-29; [6]) of 23.4 µM. The TGI (HT-29; read-out: pTGI (converted)) was 0.871 µM, the GI50 (SF-268; read-out: GI50) was 0.16 µM and the CC50 (SF-268; [5]) was over 100 µM. The GI50 (SF-268; read-out: pGI50 (converted)) was 0.17 µM, the CC50 (SF-268; [6]) was over 100 µM and the TGI (SF-268; read-out: pTGI (converted)) was 1.12 µM. It also gave a GI50 (SF-295) of 0.603 µM, a CC50 (SF-295; [6]) of over 100 µM and a TGI (SF-295; read-out: pTGI (converted)) of 4.27 µM. The GI50 (SF-539) was 0.347 µM, the CC50 (SF-539; [6]) was over 100 µM and the TGI (SF-539; read-out: pTGI (converted)) was 1.78 µM. The GI50 (SNB-19) was 0.49 µM, the CC50 (SNB-19; [6]) was over 100 µM and the TGI (SNB-19; read-out: pTGI (converted)) was 4.37 µM. It also gave a GI50 (SNB-75) of 0.269 µM, a CC50 (SNB-75; [6]) of 6.31 µM and a TGI (SNB-75; read-out: pTGI (converted)) of 1.86 µM. It also gave a GI50 (UACC-257) of 0.457 µM, a CC50 (UACC-257; [6]) of over 100 µM and a TGI (UACC-257; read-out: pTGI (converted)) of 2.82 µM. The GI50 (OVCAR-5) was 0.513 µM, the CC50 (OVCAR-5; [6]) was 24 µM and the TGI (OVCAR-5; read-out: pTGI (converted)) was 3.63 µM. The GI50 (SK-OV-3) was 1.41 µM, the CC50 (SK-OV-3; [6]) was over 100 µM and the GI50 (786-0) was 0.372 µM. For the same compound, the CC50 (786-0; [6]) was over 100 µM, the TGI (786-0; read-out: pTGI (converted)) was 5.25 µM and the GI50 (A498) was 1.74 µM. The CC50 (A498; [6]) was 7.24 µM, the TGI (A498; read-out: pTGI (converted)) was 3.55 µM and the GI50 (CAKI-1) was 0.174 µM. For the same compound, the CC50 (CAKI-1; [6]) was over 100 µM, the TGI (CAKI-1; read-out: pTGI (converted)) was 0.692 µM and the GI50 (RXF 393) was 0.214 µM. The CC50 (RXF 393; [6]) was 2.29 µM, the TGI (RXF 393; read-out: pTGI (converted)) was 0.513 µM and the GI50 (UO-31 [1]) was 0.178 µM. It also gave a TGI (UO-31 [1]; read-out: pTGI (converted)) of 0.407 µM, a GI50 (DU-145) of 0.347 µM and a CC50 (DU-145; [6]) of over 100 µM. The TGI (DU-145; read-out: pTGI (converted)) was 1.48 µM, the inhibition of growth at 10 µM (RPMI-8226) was 100% and the inhibition of growth at 10 µM (SR) was 91%. For the same compound, the inhibition of growth at 10 µM (UO-31 [2]) was 100%, the inhibition of growth at 10 µM (MCF7) was 100% and the inhibition of growth at 10 µM (MDA-MB-468) was 100%. The TI [3] was 28, the Activity (C6) was “Active” and the Activity [4] was “Active”.
